Measured values: patent publication US20030203372A1, “Analysis method” (priority 2000, published 2003)
Blank lines part the entries; values can stand above or below the compound they belong to.

How the values were obtained:
HIF = assay: HRE-Luc luciferase reporter assay of HIF activity in transiently transfected 293T cells (evaluation of HIF prolyl hydroxylase inhibitors and EGLN3 isoforms); type: cell-based, human; settings: normoxia, even when full length EGLN3 protein or EGLN3 splice variant was over-expressed; MIMO 0.4 mM
Procedure: As discussed above, the stability of HIF is controlled by proline hydroxylation, catalysed by the product of the EGLN3 gene which renders the HIF protein unstable. EGLN3 is only active in normoxia since the reaction that it catalyses requires oxygen.
Plasmid CMV-SVFL1 expresses full length EGLN3. Plasmid CMV-SVFL2 expresses the EGLN3 splice variant.
Three plasmid transfections were performed and pCIneo was used as the “stuffing”/control plasmid to fill the vacancies.
Transfected 293 cells were incubated under normoxia till the end of the experiment.

[1] = tested on: primary human macrophages; assay: Custom gene array, macrophages exposed to hypoxia and/or IL-15; type: cell-based; settings: relative to no cytokine, 20% oxygen = 1
Procedure: Gene expression levels were measured and compared using the custom gene array. In data analysis per-gene normalisation was set up such that expression values represent the fold-change compared with the expression in untreated normoxic cells. Genes which are increased in expression in response to TNFα by at least 2-fold, in either normoxic or hypoxic cells, are shown in Table 20. Genes which are decreased in expression in response to TNFα by at least 2-fold, in either normoxic or hypoxic cells, are shown in Table 21.
The cytokine IL-15 is implicated in several disease in which macrophages and hypoxia both feature as elements of the inflammatory state, such as in atherosclerosis (Wuttge D M et al Am J Pathol. 2001 159:417-23) and rheumatoid arthritis (McInnes I B et al Immunol Today. 1998 19:75-9). Although the main target of IL-15 is T-cells effects have also been shown on monocytes (Badolato R et al Blood. 1997 90:2804-9). Therefore genes which respond to both hypoxia and IL-15 are especially likely to be relevant to disease processes and have utility in the design of therapeutic products. Genes which are increased in expression in response to IL-15 by at least 2-fold, in either normoxic or hypoxic cells, are shown in Table 24. Genes which are decreased in expression in response to IL-15 by at least 2-fold, in either normoxic or hypoxic cells, are shown in Table 25.

[2] = tested on: primary human macrophages; assay: Custom gene array, macrophages exposed to hypoxia and/or TNFα; type: cell-based; settings: relative to no cytokine, 20% oxygen = 1
[3] = Hypoxia response of the referenced genes/sequences, summary in cross-reference Table 26; type: cell-based, human; settings: direction of expression change of the gene/sequence in response to hypoxia

Compound: CCOC(=O)c1ccc(O)c(O)c1 [EDB]
HIF-PH inhibition (HIF): work as HIF-PH inhibitors

Aldolase C expression (clone p1A19, Seq ID 260) ([1]; 0.1% oxygen): 1.30
Fatty-acid-Coenzyme A ligase, long-chain 2 expression (clone p1J11, Seq ID 466) ([1]; 0.1% oxygen): 1.29
Glucose phosphate isomerase expression (clone p1C6, Seq ID 368) ([1]; 0.1% oxygen): 3.13
Lactate dehydrogenase A expression (clone p1A8, Seq ID 224) ([1]; 0.1% oxygen): 2.29
Lactate dehydrogenase A expression (clone p1A9, Seq ID 224) ([1]; 0.1% oxygen): 1.83
Neutral sphingomyelinase (N-SMase) activation associated factor expression (clone p1J22, Seq ID 428) ([1]; 0.1% oxygen): 0.11
Proline 4-hydroxylase, alpha polypeptide II expression (clone p1B4, Seq ID 350) ([1]; 0.1% oxygen): 1.34
Triosephosphate isomerase 1 expression (clone p1A20, Seq ID 262) ([1]; 0.1% oxygen): 1.22
Uridine 5′ monophosphate hydrolase 1 expression (clone p1I7, Seq ID 50) ([1]; 0.1% oxygen): 3.61
Aldolase C expression (clone p1A19, Seq ID 260) ([1]; 20% oxygen): 0.35
Fatty-acid-Coenzyme A ligase, long-chain 2 expression (clone p1J11, Seq ID 466) ([1]; 20% oxygen): 1.64
Glucose phosphate isomerase expression (clone p1C6, Seq ID 368) ([1]; 20% oxygen): 0.57
Lactate dehydrogenase A expression (clone p1A8, Seq ID 224) ([1]; 20% oxygen): 0.48
Lactate dehydrogenase A expression (clone p1A9, Seq ID 224) ([1]; 20% oxygen): 0.49
Neutral sphingomyelinase (N-SMase) activation associated factor expression (clone p1J22, Seq ID 428) ([1]; 20% oxygen): 1.51
Proline 4-hydroxylase, alpha polypeptide II expression (clone p1B4, Seq ID 350) ([1]; 20% oxygen): 0.50
Triosephosphate isomerase 1 expression (clone p1A20, Seq ID 262) ([1]; 20% oxygen): 0.36
Uridine 5′ monophosphate hydrolase 1 expression (clone p1I7, Seq ID 50) ([1]; 20% oxygen): 4.98
Compound: IL-15
ABL expression (clone p1H8, Seq ID 182) ([1]; 0.1% oxygen): 0.09
Abstrakt expression (clone p1C14, Seq ID 384) ([1]; 0.1% oxygen): 1.24
Adipophilin expression (clone p1B6, Seq ID 314) ([1]; 0.1% oxygen): 2.39
Adipophilin expression (clone p1B7, Seq ID 314) ([1]; 0.1% oxygen): 2.02
Adipophilin expression (clone p1B8, Seq ID 314) ([1]; 0.1% oxygen): 1.42
Adipophilin expression (clone p1B9, Seq ID 314) ([1]; 0.1% oxygen): 1.66
D123 expression (clone p1C7, Seq ID 370) ([1]; 0.1% oxygen): 0.90
EST expression (clone p1D19, Seq ID 144) ([1]; 0.1% oxygen): 1.39
EST expression (clone p1H6, Seq ID 192) ([1]; 0.1% oxygen): 0.67
EST expression (clone p2A14, Seq ID 446) ([1]; 0.1% oxygen): 0.51
GAPDH expression (clone p1A11, Seq ID 254) ([1]; 0.1% oxygen): 4.32
Glycogen synthase 1 expression (clone p1G24, Seq ID 276) ([1]; 0.1% oxygen): 0.55
Hypoxia-inducible protein 2 expression (clone p1D8, Seq ID 272) ([1]; 0.1% oxygen): 0.62
Keratin 6B expression (clone p1K14, Seq ID 422) ([1]; 0.1% oxygen): 0.11
Metallothionein 2A expression (clone p1A23, Seq ID 266) ([1]; 0.1% oxygen): 3.08
SCYA2 expression (clone p1P5, Seq ID 396) ([1]; 0.1% oxygen): 1.37
SCYA7 expression (clone p1J5, Seq ID 464) ([1]; 0.1% oxygen): 1.61
SCYA8 expression (clone p1I21, Seq ID 480) ([1]; 0.1% oxygen): 1.55
cDNA: FLJ23019 fis, clone LNG00916 expression (clone p1J16, Seq ID 454) ([1]; 0.1% oxygen): 7.27
hypothetical protein FLJ10206 expression (clone p1J6, Seq ID 40) ([1]; 0.1% oxygen): 0.18
hypothetical protein FLJ22690 expression (clone p1H5, Seq ID 206) ([1]; 0.1% oxygen): 1.59
hypothetical protein MGC4549 expression (clone p1I12, Seq ID 152) ([1]; 0.1% oxygen): 0.28
ABL expression (clone p1H8, Seq ID 182) ([1]; 20% oxygen): 1.22
Abstrakt expression (clone p1C14, Seq ID 384) ([1]; 20% oxygen): 0.40
Adipophilin expression (clone p1B6, Seq ID 314) ([1]; 20% oxygen): 0.37
Adipophilin expression (clone p1B7, Seq ID 314) ([1]; 20% oxygen): 0.30
Adipophilin expression (clone p1B8, Seq ID 314) ([1]; 20% oxygen): 0.23
Adipophilin expression (clone p1B9, Seq ID 314) ([1]; 20% oxygen): 0.41
D123 expression (clone p1C7, Seq ID 370) ([1]; 20% oxygen): 0.47
EST expression (clone p1D19, Seq ID 144) ([1]; 20% oxygen): 2.27
EST expression (clone p1H6, Seq ID 192) ([1]; 20% oxygen): 1.95
EST expression (clone p2A14, Seq ID 446) ([1]; 20% oxygen): 1.08
GAPDH expression (clone p1A11, Seq ID 254) ([1]; 20% oxygen): 0.52
Glycogen synthase 1 expression (clone p1G24, Seq ID 276) ([1]; 20% oxygen): 0.88
Hypoxia-inducible protein 2 expression (clone p1D8, Seq ID 272) ([1]; 20% oxygen): 1.25
Keratin 6B expression (clone p1K14, Seq ID 422) ([1]; 20% oxygen): 1.48
Metallothionein 2A expression (clone p1A23, Seq ID 266) ([1]; 20% oxygen): 1.26
SCYA2 expression (clone p1P5, Seq ID 396) ([1]; 20% oxygen): 4.51
SCYA7 expression (clone p1J5, Seq ID 464) ([1]; 20% oxygen): 3.27
SCYA8 expression (clone p1I21, Seq ID 480) ([1]; 20% oxygen): 3.77
cDNA: FLJ23019 fis, clone LNG00916 expression (clone p1J16, Seq ID 454) ([1]; 20% oxygen): 5.76
hypothetical protein FLJ10206 expression (clone p1J6, Seq ID 40) ([1]; 20% oxygen): 1.28
hypothetical protein FLJ22690 expression (clone p1H5, Seq ID 206) ([1]; 20% oxygen): 2.37
hypothetical protein MGC4549 expression (clone p1I12, Seq ID 152) ([1]; 20% oxygen): 1.64

Fatty-acid-Coenzyme A ligase, long-chain 2 expression (clone p1J11, Seq ID 466) ([2]; 0.1% oxygen): 1.28
Glucose phosphate isomerase expression (clone p1C6, Seq ID 368) ([2]; 0.1% oxygen): 1.43
Neutral sphingomyelinase (N-SMase) activation associated factor expression (clone p1J22, Seq ID 428) ([2]; 0.1% oxygen): 0.11
Fatty-acid-Coenzyme A ligase, long-chain 2 expression (clone p1J11, Seq ID 466) ([2]; 20% oxygen): 1.63
Glucose phosphate isomerase expression (clone p1C6, Seq ID 368) ([2]; 20% oxygen): 2.14
Compound: IL-17
Decidual protein induced by progesterone expression (clone p1C16, Seq ID 388) ([2]; 0.1% oxygen): 0.51
EST expression (clone p1H4, Seq ID 214) ([2]; 0.1% oxygen): 0.58
EST expression (clone p2A14, Seq ID 446) ([2]; 0.1% oxygen): 0.40
GAPDH expression (clone p1A11, Seq ID 254) ([2]; 0.1% oxygen): 1.84
GRO1 expression (clone p1I24, Seq ID 486) ([2]; 0.1% oxygen): 1.28
GRO2 expression (clone p1I19, Seq ID 482) ([2]; 0.1% oxygen): 1.43
Interleukin 8 expression (clone p1B14, Seq ID 252) ([2]; 0.1% oxygen): 7.13
Interleukin 8 expression (clone p1B15, Seq ID 252) ([2]; 0.1% oxygen): 9.71
Interleukin 8 expression (clone p1B16, Seq ID 252) ([2]; 0.1% oxygen): 12.2
Plasminogen activator inhibitor, type 1 expression (clone p1B18, Seq ID 236) ([2]; 0.1% oxygen): 0.78
SCYA2 expression (clone p1P5, Seq ID 396) ([2]; 0.1% oxygen): 0.58
SCYA4 expression (clone p1K8, Seq ID 408) ([2]; 0.1% oxygen): 0.83
cDNA YI27F12 expression (clone p1E15, Seq ID 108) ([2]; 0.1% oxygen): 0.56
hypothetical protein FLJ10206 expression (clone p1J6, Seq ID 40) ([2]; 0.1% oxygen): 0.23
Decidual protein induced by progesterone expression (clone p1C16, Seq ID 388) ([2]; 20% oxygen): 0.73
EST expression (clone p1H4, Seq ID 214) ([2]; 20% oxygen): 0.49
EST expression (clone p2A14, Seq ID 446) ([2]; 20% oxygen): 0.56
GAPDH expression (clone p1A11, Seq ID 254) ([2]; 20% oxygen): 2.60
GRO1 expression (clone p1I24, Seq ID 486) ([2]; 20% oxygen): 2.29
GRO2 expression (clone p1I19, Seq ID 482) ([2]; 20% oxygen): 2.26
Glycogen synthase 1 expression (clone p1G24, Seq ID 276) ([2]; 20% oxygen): 0.34
Hypoxia-inducible protein 2 expression (clone p1D8, Seq ID 272) ([2]; 20% oxygen): 0.44
Interleukin 8 expression (clone p1B14, Seq ID 252) ([2]; 20% oxygen): 9.34
Interleukin 8 expression (clone p1B15, Seq ID 252) ([2]; 20% oxygen): 7.36
Interleukin 8 expression (clone p1B16, Seq ID 252) ([2]; 20% oxygen): 9.52
Plasminogen activator inhibitor, type 1 expression (clone p1B18, Seq ID 236) ([2]; 20% oxygen): 0.49
SCYA2 expression (clone p1P5, Seq ID 396) ([2]; 20% oxygen): 2.12
SCYA4 expression (clone p1K8, Seq ID 408) ([2]; 20% oxygen): 2.48
hypothetical protein FLJ10206 expression (clone p1J6, Seq ID 40) ([2]; 20% oxygen): 0.22

Compound: Monocyte chemotactic protein 1
Hypoxia response [3]: Repression

Compound: Interleukin 8
Hypoxia response [3]: Increase
